The values below come from patent publication EP1038516A1, “Cosmetic composition comprising kynurenine” (Uchikuga, Saburoh, priority 1999, dated 2000).

A short description of series [1]: Ultraviolet absorption (maximum absorption wavelength and molecular extinction coefficient). It counts as physicochemical. The note with it: for Maximum absorption wavelength (λmax): UV-A region (320 to 380 nm); for Molecular extinction coefficient (ε): at λmax in the UV-A region. The source says:
The properties of kynurenine and the derivative thereof are collectively shown below in Table 1, along with the properties of "Palsole A". As apparently shown in the table and Fig. 1, the maximum absorption lengths (λmax) of kynurenine and the derivative thereof preferably reside in 360 to 365 nm in the UV-A region (320 to 380 nm) with the highest risk of direct darkening of skin. Kynurenine has a molecular extinction coefficient (ε) functioning as a marker of the intensity of ultraviolet absorption (ε = 4,000), which is about 1/10 of the commercially available Palsole A (ε = 36,000). […] Accordingly, such large quantity considered abnormal is required to be blended. Table 1 In addition to the UV-A region, kynurenine and the derivative thereof have the maximum absorption wavelength at 253 nm with the molecular extinction coefficient of 6,700. In other words, kynurenine and the derivative thereof exert absorption in the UV-C region ([…]). The ultraviolet ray in the UV-C region is generally absorbed in the ozone layer and therefore never reaches ground surface, so the absorption in the region is not meaningful as cosmetics. Kynurenine and the derivative thereof never exert absorption in the UV-B region (290 to 320 nm) in the erythema curve region with the highest risk in sunlight. Thus, an effect on the prevention of erythema against ultraviolet ray in the UV-B region cannot be expected.

For series [2], the system named is tyrosinase. Description: Test Example 1: disappearance of kynurenine / 3-hydroxykynurenine and pigment generation with tyrosinase and dopa or tyrosine. Format: biochemical. Conditions: 3.5 hours; for disappearance of kynurenine or 3-hydroxykynurenine: assayed at 355 nm. The method, then: 5 units of tyrosinase, 2.5 µmol of dopa or tyrosine, and 1 mg of kynurenine sulfate salt or 3-hydroxykynurenine dihydrate were dissolved in 0.1M phosphate buffer, pH 7.0 to a final volume of 5 ml and the resulting solution was agitated at ambient temperature for 3.5 hours; thereafter, the disappearance of kynurenine or 3-hydroxykynurenine was assayed at 355 nm, which corresponds to the λmax of kynurenine and 3-hydroxykynurenine in UV-A. The contents of the individual tests are shown below in Table 2. Table 2 [table]

For series [3], the system named is tyrosinase. Description: Tyrosinase activity-inhibiting effect. Format: biochemical. The source says: It was expectantly assumed that kynurenine and the derivative thereof inhibited tyrosinase and thereby suppressed the generation of black melanin so that kynurenine and the derivative thereof could be utilized as an ingredient for preventing spot and freckle and the deposition of pigments.

The test system of the next series is 5 bacterial strains. Description: Ames test (mutagenicity). It counts as cell-based. From the text: The kynurenine represented by the general formula I and substances relating thereto are metabolic intermediates of tryptophan and are essentially present in biological organisms; and the kynurenine and substances relating thereto are contained at particularly large quantities in the eyes of human new born babies and infants but are decreased over aging [J. Biochem., Vol. 89, 103 (1981)], and have therefore no safety problem.
The generated brown pigment is present in the eye, skin and wing of Arthropoda and Mollusca. The brown pigment is also contained in human eye. Because the brown pigment is widely distributed in animals in such manner, the generated pigment is greatly safe. The brown pigment (xanthommatin) was chemically synthesized according to the method in Angew. Chem., 69, Jahrg. 16 (1957) and subjected to Ames test.

Setting [4] is: Tests 1 and 2: tyrosinase +, dopa/tyrosine +, air +, pH 7.0, ambient temperature.

“And” between values parts separate entries of the source, which are not always exact repeats. Identical values can stand only once.

`Nc1c(O)cccc1C(=O)CC(N)C(=O)O` (stereo not drawn) [3-hydroxykynurenine]: the “Maximum absorption wavelength (λmax)” value in series [1] came to 355 nm. The “disappearance of kynurenine or 3-hydroxykynurenine” value (shortened to “disappearance”) is listed as “no disappearance of 3-hydroxykynurenine observed” in the series on tyrosinase [2] (Test 3: tyrosinase with thermal treatment, dopa/tyrosine +, air +); “no disappearance of 3-hydroxykynurenine observed” in the series with tyrosinase [2] (Test 4: tyrosinase +, no dopa/tyrosine, air +); “disappeared” with tyrosinase [2] (setting [4]). Also, the pigment generation result in the series on tyrosinase [2] (setting [4]) is reported as “pigment generated”.

Regarding `COc1ccc(C(=O)CC(=O)c2ccc(C(C)(C)C)cc2)cc1` [Palsole A, reference compound], in series [1], the “Maximum absorption wavelength (λmax)” value worked out at 355 nm; the “Molecular extinction coefficient (ε)” value was 36,000 and 35,000.

Consider `Nc1ccccc1C(=O)CC(N)C(=O)O` (stereo not drawn) [kynurenine], for which, in series [1] (UV-A region), the “molecular extinction coefficient (ε) relative to Palsole A” value is “about 1/10”. Besides, in series [1], the “Maximum absorption wavelength (λmax)” value was determined as 355 nm and the “Molecular extinction coefficient (ε)” value is listed as 4,000. The tyrosinase-inhibiting ability result with tyrosinase [3] was “never has any ability of tyrosinase inhibition or has the ability insufficiently”. Also, the “disappearance” value in the series with tyrosinase [2] (Test 5: tyrosinase +, dopa/tyrosine +, no air) was “no disappearance of kynurenine observed”. Further, in the series with tyrosinase [2] (setting [4]), the pigment generation entry was “pigment generated” and the “disappearance” value is “disappeared”.

As for `NC(CC(=O)c1cccc2oc3cc(=O)c4[nH]c(C(=O)O)cc(=O)c4c-3nc12)C(=O)O` (stereo not drawn) [xanthommatin], in the series with 5 bacterial strains, the mutagenicity result is given as “No mutagenicity was observed”.
